Data from US20220395458A1, “PREVENTION OF VISIBLE PARTICLE FORMATION IN AQUEOUS PROTEIN SOLUTIONS” (Hoffmann-La Roche Inc., priority 2019, published 2022).

What was measured:
[1] = Visible particles (Seidenader) after spiking FFA to glass leachable solutions; type: physicochemical; design: key to Visible particles: relative ranking to each other from less to most particle fromation (+, ++, +++); relative ranking to each other from less to most particle fromation (+, ++, +++); relative ranking to each other from less to most particle fromation (+, ++, +++); conditions: for Visible particles: FFA below solubility limit, up to 7 days, triplicates; for Visible particles d0: d0 directly after spiking
Protocol: (§1) Aqueous stock solutions were prepared in 0.02% PS20 (Croda. Edison, N.J., USA) at defined concentrations of (1) 5 mg/mL and (2) 12.5 mg/mL (lauric acid. Sigma-Aldrich/Merck. Darmstadt. Del.) or (1) 1.5 mg/mL and (2) 5 mg/mL (myristic acid, Sigma-Aldrich/Merck. Darmstadt. Del.) as previously described by Doshi et al.^6 The procedure was adapted that the FFA/PS20 stock solution was sterile filtered using 0.22 μm PVDF Steriflip filters (Merck Millipore. Darmstadt. Del.) before 1:10 dilution and subsequently homogenized without a magnetic stirrer using a Heidolph Rotamax 120 orbital shaker (Schwabach. Del.) at 100 rpm at 25° C., for 1 hour. After 1:500 dilution, the solution was homogenized for 1 hour at 25° C., before homogenization at 2-8° C., overnight, 12-40 μL of stock solution were used for spiking experiments yielding final FFA concentrations of (1) 10 μg/mL and (2) 25 μg/mL (lauric acid) or (1) 3 μg/mL and (2) 10 μg/mL (myristic acid). Dilutions with stock solutions 1 yield FFA concentration below their solubility limit, whereas stock solutions 2 act as positive control confirmed by the formation of visible particles. FFA concentrations were verified for selected by LC-MS samples acc. Honemann et al.^7
Representative mixtures of glass leachables were obtained from three different types of glass vials, e.g. Exp 33 and Exp51 (Schott A G, Müllheim, D E, and Schott North America Inc., N.Y. USA) in the 6 mL format, by three autoclavation cycles (121° C., 20 min) representing accelerate aging conditions. Vials were filled with 6 mL of either water for injection (WFI), 20 mM glycine solution pH 10 or a typical placebo solution used for protein formulations consisting of 20 mM Histidine/Histdine-HCl buffer pH 6.0, 10 mM Methionine, 240 mM sucrose (Ferro Pfanstiehl. Waukegan. Ill. USA), and 0.02% PS20. The pH of the glycine solutions was adapted after autoclavation with HCl to pH 6.0 and filtered through a 0.22 μm PVDF Sterivex filters (Merck Millipore. Darmstadt. Del.) Leachable concentrations were verified ICP-MS (Table 1) as described by Ditter et al.^8 Spiking experiments with FFA were performed in triplicates,
(§2) Samples were analyzed by visual inspection on a Seidenader V 90-T instrument (Seidenader Maschinenbau GmbH. Markt Schwaben. Del.) as previously described by Ditter et al.^9 and using a black/white panel according Ph. Eur. 2.9.20.^10 and classified as Many particles (>7). Few particles (4-7), or Practically free of particles (0-4) in E/P box, and Many particles (>10). Few particles (6-10). Essentially free of particles (1-5), or Free of particles (0) by Seidenader.
(§3) pH of all solutions was verified. Samples were visually inspected immediately after spiking and regularly for up to 7 days. Further characterization by HIAC, turbidity, FTIR, and SEM-EDX was performed on day 1 only. All samples were analyzed when equilibrated to room temperature (4 h).
Glass leachables were generated from different types of glass vials, e.g. Exp33 and Exp51 vials, with different matrix solutions including WFI, a glycine solution adjusted to pH 6, and a placebo solution representative for a mAb formulation. Defined amounts of myristic and lauric acid below their solubility limit were added to the solutions/mixtures of glass leachables and analyzed. Visible particles in Seidenader are summarized in Table 3 and were detected for all samples in contrast to various controls. Particle formation was dependent on the glass leachable solution and dependent on incubation time. […] An example for the dependency of particle formation on incubation time is provided in Table 3 for myristic acid in glass leachable solution from Exp51 vials/glycine solution. The example highlights the kinetics of particle formation with no particles directly after spiking and more than 10 particles at incubation day 5 and 7. For selected samples, particles were further characterized and identified by FTIR confirming the presence of free fatty acids. […]

[2] = Visible particles in E/P box (Ph. Eur. 2.9.20) after spiking FFA to inorganic salt solutions; type: physicochemical; conditions: FFA below solubility limit; for Visible particles E/P d0: d0 directly after spiking
Protocol: as §1
Aqueous stock solutions of different salts were prepared at 1 mg/mL and used for spiking experiments to final concentrations between […]. NaCl, NaAlO2. NaBO2. B2O3, and CaCl2 (Sigma-Aldrich/Merck. Darmstadt. Del.) were selected as their dissolution products (ions) represent typical glass leachables from Type I borosilicate glass. The pH of the NaAlO2 and NaBO2 stock solutions was adjusted to pH 6 using HCl and subsequently filtered using 0.22 μm PVDF Sterivex filters (Merck Millipore. Darmstadt. Del.) and true elemental concentrations were determined by inductively-coupled plasma mass spectrometry (ICP-MS). Elemental concentrations were 0,048 μg/mL Aluminium and 295 μg/mL sodium and 78 μg/mL boron and 168 μg/mL, respectively. Spiking experiments with FFA were performed in duplicates.
as §2, §3
Different inorganic salt solutions, i.e. CaCl2. NaAlO2. NaBO2. B2O3, and NaCl, were prepared simulating artificial glass leachables. Myristic and lauric acid, as main degradation product from hydrolytic PS20 degradation, were added at concentrations below their solubility limit and samples were analyzed for visible particles. SVP, and turbidity. Samples were compared against relevant controls and the pH verified at pH 6.

[3] = glass leachable solution Exp33 vials, 3xTS Placebo
[4] = glass leachable solution Exp33 vials, 3xTS WFI
[5] = glass leachable solution Exp51 vials, 3xTS Glycine pH 6
[6] = glass leachable solution Exp51 vials, 3xTS Placebo
[7] = glass leachable solution Exp51 vials, 3xTS WFI
[8] = CaCl2 250 μg/mL (Ca2+ 90 μg/mL)
[9] = CaCl2 500 μg/mL (Ca2+ 180 μg/mL)
[10] = CaCl2 1000 μg/mL (Ca2+ 360 μg/mL)
[11] = NaAlO2 nominal 250 μg/mL (0.012 μg/mL ion)
[12] = NaAlO2 nominal 500 μg/mL (0.024 μg/mL ion)
[13] = NaAlO2 nominal 1000 μg/mL (0.048 μg/mL ion)
[14] = Exp51 vials, 3xTS Glycine pH 6, samples 1-3
[15] = Exp51 vials, 3xTS Glycine pH 6, samples 1-3, listed as myristic acid

Structure (SMILES) | Visible particles [1, 3] | Visible particles [1, 4] | Visible particles [1, 5] | Visible particles [1, 6] | Visible particles [1, 7] | Visible particles E/P d0 [2, 8] | Visible particles E/P d2 [2, 8] | Visible particles E/P d7 [2, 8] | Visible particles E/P d0 [2, 9] | Visible particles E/P d7 [2, 9] | Visible particles E/P d0 [2, 10] | Visible particles E/P d2 [2, 10] | Visible particles E/P d7 [2, 10] | Visible particles E/P d0 [2, 11] | Visible particles E/P d1 [2, 11] | Visible particles E/P d2 [2, 11] | Visible particles E/P d7 [2, 11] | Visible particles E/P d0 [2, 12] | Visible particles E/P d1 [2, 12] | Visible particles E/P d2 [2, 12] | other results
CCCCCCCCCCCC(=O)O [Lauric acid, lauric acid] | +++ | + | ++ | +++ | ++ | / (Practically free of particles (0-4, /) in E/P box) | / (Practically free of particles (0-4, /) in E/P box) | / (Practically free of particles (0-4, /) in E/P box) | / (Practically free of particles (0-4, /) in E/P box) | / (Practically free of particles (0-4, /) in E/P box) | / (Practically free of particles (0-4, /) in E/P box) | xx (Few particles (4-7, xx)) | / (Practically free of particles (0-4, /) in E/P box) | / (Practically free of particles (0-4, /) in E/P box) | / (Practically free of particles (0-4, /) in E/P box) | / (Practically free of particles (0-4, /) in E/P box) | / (Practically free of particles (0-4, /) in E/P box) | / (Practically free of particles (0-4, /) in E/P box) | / (Practically free of particles (0-4, /) in E/P box) | / (Practically free of particles (0-4, /) in E/P box) | Visible particles E/P d2 [2, 9]: / (Practically free of particles (0-4, /) in E/P box); Visible particles E/P d7 [2, 12]: / (Practically free of particles (0-4, /) in E/P box); Visible particles E/P d0 [2, 13]: / (Practically free of particles (0-4, /) in E/P box); Visible particles E/P d1 [2, 13]: / (Practically free of particles (0-4, /) in E/P box); Visible particles E/P d2 [2, 13]: / (Practically free of particles (0-4, /) in E/P box); Visible particles E/P d7 [2, 13]: / (Practically free of particles (0-4, /) in E/P box)
CCCCCCCCCCCCCC(=O)O [Myristic acid, myristic acid] | + | + | +++ | + | + | / (Practically free of particles (0-4, /) in E/P box) | / (Practically free of particles (0-4, /) in E/P box) | xxx (Many particles (>7, xxx)) | / (Practically free of particles (0-4, /) in E/P box) | xxx (Many particles (>7, xxx)) | / (Practically free of particles (0-4, /) in E/P box) | xxx (Many particles (>7, xxx)) | xxx (Many particles (>7, xxx)) | / (Practically free of particles (0-4, /) in E/P box) | / (Practically free of particles (0-4, /) in E/P box) | / (Practically free of particles (0-4, /) in E/P box) | / (Practically free of particles (0-4, /) in E/P box) | / (Practically free of particles (0-4, /) in E/P box) | / (Practically free of particles (0-4, /) in E/P box) | / (Practically free of particles (0-4, /) in E/P box) | Visible particles d0 [1, 14]: 1-5 particles; Visible particles d0 [1, 15]: no particles; Visible particles d1 ([1]; Exp51 vials, 3xTS Glycine pH 6, d1, samples 1-3): 1-5 particles; Visible particles d5/7 [1, 14]: >10 particles; Visible particles d5/7 [1, 15]: more than 10 particles; Visible particles ([1]; glass leachable solution Exp33 vials, 3xTS Glycine pH 6): +; Visible particles E/P d1 [2, 8]: / (Practically free of particles (0-4, /) in E/P box); Visible particles E/P d1 [2, 9]: xx (Few particles (4-7, xx)); Visible particles E/P d1 [2, 10]: xxx (Many particles (>7, xxx)); Visible particles E/P d0 [2, 13]: / (Practically free of particles (0-4, /) in E/P box); Visible particles E/P d1 [2, 13]: / (Practically free of particles (0-4, /) in E/P box); Visible particles E/P d7 [2, 13]: xxx (Many particles (>7, xxx))
